Experimental data as given in patent publication US11180462B2, “Microbiocidal oxadiazole derivatives” (SYNGENTA PARTICIPATIONS AG, priority 2015, dated 2021).

Each molecule was assayed on Glomerella lagenarium (Colletotrichum lagenarium) (assay: Fungicidal activity against Glomerella lagenarium (Colletotrichum lagenarium) liquid culture / cucumber / preventative (anthracnose)). Conditions: Colletotrichum orbiculare; 20 ppm in the applied formulation; liquid culture (PDB), growth inhibition measured photometrically after 3 to 4 days; compared to untreated control; read-out: disease control.
Type: cell-based
Description: Mycelia fragments or conidia suspensions of a fungus prepared either freshly from liquid cultures of the fungus or from cryogenic storage, are directly mixed into nutrient broth. DMSO solutions of the test compound (max. 10 mg/ml) are diluted with 0.025% Tween20 by a factor of 50 and 10 μl of this solution is pipetted into a microtiter plate (96-well format). The nutrient broth containing the fungal spores/mycelia fragments is then added to give an end concentration of the tested compound. The test plates are incubated in the dark at 24° C. and 96% relative humidity. The inhibition of fungal growth is determined photometrically after 2 to 7 days, depending on the pathosystem, and percent antifungal activity relative to the untreated check is calculated.
Fungicidal activity against Glomerella lagenarium (Colletotrichum lagenarium) liquid culture/cucumber/Preventative (Anthracnose)
Conidia of the fungus from cryogenic storage are directly mixed into nutrient broth (PDB—potato dextrose broth). After placing a (DMSO) solution of test compound into a microtiter plate (96-well format), the nutrient broth containing the fungal spores is added.
The following compounds at 20 ppm in the applied formulation give at least 80% disease control in this test when compared to untreated control under the same conditions, which show extensive disease development.
CON(C(=O)CC1CC1)C(C)c1ccc(-c2noc(C(F)(F)F)n2)cc1 (stereo not drawn) [Compound 1.256, 2-cyclopropyl-N-methoxy-N-[1-[4-[5-(trifluoromethyl)-1,2,4-oxadiazol-3-yl]phenyl]ethyl]-acetamide] showed an inhibition of growth at 20 ppm of no less than 80%.
Work on CON(C(=O)C1CCCC1)C(C)c1ccc(-c2noc(C(F)(F)F)n2)cc1 (stereo not drawn) [Compound 1.257] yielded an inhibition of growth at 20 ppm of no less than 80%.
CON(C(=O)CC(C)C)C(C)c1ccc(-c2noc(C(F)(F)F)n2)cc1 (stereo not drawn) [Compound 1.261, N-methoxy-3-methyl-N-[1-[4-[5-(trifluoromethyl)-1,2,4-oxadiazol-3-yl]phenyl]ethyl]-butanamide] gave an inhibition of growth at 20 ppm of no less than 80%.
With CON(C(=O)C1CCC1)C(C)c1ccc(-c2noc(C(F)(F)F)n2)cc1 (stereo not drawn) [Compound 1.262, N-methoxy-N-[1-[4-[5-(trifluoromethyl)-1,2,4-oxadiazol-3-yl]pheny1]ethyl]-cyclobutane-carboxamide] the inhibition of growth at 20 ppm was no less than 80%.
Molecule CON(C(=O)C1CC1C)C(C)c1ccc(-c2noc(C(F)(F)F)n2)cc1 (stereo not drawn) [Compound 1.265, N-methoxy-2-methyl-N-[1-[4-[5-(trifluoromethyl)-1,2,4-oxadiazol-3-yl]phenyl]ethyl]-cyclopropane-carboxamide] has an inhibition of growth at 20 ppm of no less than 80%.
CON(C(=O)C1(C)CC1)C(C)c1ccc(-c2noc(C(F)(F)F)n2)cc1 (stereo not drawn) [Compound 1.268, N-methoxy-1-methyl-N-[1-[4-[5-(trifluoromethyl)-1,2,4-oxadiazol-3-yl]phenyl]ethyl]-cyclopropane-carboxamide] gave an inhibition of growth at 20 ppm of no less than 80%.
Molecule C#CC(=O)N(OC)C(C)c1ccc(-c2noc(C(F)(F)F)n2)cc1 (stereo not drawn) [Compound 1.269, N-methoxy-N-[1-[4-[5-(trifluoromethyl)-1,2,4-oxadiazol-3-yl]phenyl]ethyl]prop-2-ynamide] has an inhibition of growth at 20 ppm of no less than 80%.
For CON(C(=O)C1(F)CC1)C(C)c1ccc(-c2noc(C(F)(F)F)n2)cc1 (stereo not drawn) [Compound 1.271, 1-fluoro-N-methoxy-N-[1-[4-[5-(trifluoromethyl)-1,2,4-oxadiazol-3-yl]phenyl]ethyl]-cyclopropane-carboxamide], the inhibition of growth at 20 ppm was no less than 80%.
CON(C(=O)C=CC(C)=O)C(C)c1ccc(-c2noc(C(F)(F)F)n2)cc1 (stereo not drawn) [Compound 1.272, N-methoxy-4-oxo-N-[1-[4-[5-(trifluoromethyl)-1,2,4-oxadiazol-3-yl]phenyl]ethyl]pent-2-enamide] gave an inhibition of growth at 20 ppm of no less than 80%.
CON(C(=O)CC(F)(F)F)C(C)c1ccc(-c2noc(C(F)(F)F)n2)cc1 (stereo not drawn) [Compound 1.277, 3,3,3-trifluoro-N-methoxy-N-[1-[4-[5-(trifluoromethyl)-1,2,4-oxadiazol-3-yl]phenyl]ethyl]-propanamide] gave an inhibition of growth at 20 ppm of no less than 80%.
Work on CON(C(=O)c1ccoc1)C(C)c1ccc(-c2noc(C(F)(F)F)n2)cc1 (stereo not drawn) [Compound 1.278, N-methoxy-N-[1-[4-[5-(trifluoromethyl)-1,2,4-oxadiazol-3-yl]phenyl]ethyl]furan-3-carboxamide] yielded an inhibition of growth at 20 ppm of no less than 80%.
Work on CCCCC(=O)N(OC)C(C)c1ccc(-c2noc(C(F)(F)F)n2)cc1 (stereo not drawn) [Compound 1.281, N-methoxy-N-[1-[4-[5-(trifiuoromethyl)-1,2,4-oxadiazol-3-yl]phenyl]ethyl]-pentanamide] yielded an inhibition of growth at 20 ppm of no less than 80%.
In the case of CC#CC(=O)N(Cc1ccc(-c2noc(C(F)(F)F)n2)cc1)OCCC [Compound 1.282, N-propoxy-N-[[4-[5-(trifluoromethyl)-1,2,4-oxadiazol-3-yl]phenyl]methyl]but-2-ynamide], the inhibition of growth at 20 ppm is reported as no less than 80%.
For CCCON(Cc1ccc(-c2noc(C(F)(F)F)n2)cc1)C(=O)C(C)C [Compound 1.284, 2-methyl-N-propoxy-N-[[4-[5-(trifluoromethyl)-1,2,4-oxadiazol-3-yl]phenyl]methyl]-propanamide], the inhibition of growth at 20 ppm was no less than 80%.
Molecule CC=CC(=O)N(Cc1ccc(-c2noc(C(F)(F)F)n2)cc1)OCCC [Compound 1.285, N-propoxy-N-[[4-[5-(trifluoromethyl)-1,2,4-oxadiazol-3-yl]phenyl]methyl]but-2-enamide] has an inhibition of growth at 20 ppm of no less than 80%.
In the case of CCCON(Cc1ccc(-c2noc(C(F)(F)F)n2)cc1)C(=O)C1CC1(F)F (stereo not drawn) [Compound 1.286, 2,2-difluoro-N-propoxy-N-[[4-[5-(trifluoromethyl)-1,2,4-oxadiazol-3-yl]phenyl]methyl]-cyclopropane-carboxamide], the inhibition of growth at 20 ppm is reported as no less than 80%.
In the case of CCCON(Cc1ccc(-c2noc(C(F)(F)F)n2)cc1)C(=O)CCC [Compound 1.288, N-propoxy-N-[[4-[5-(trifluoromethyl)-1,2,4-oxadiazol-3-yl]phenyl]methyl]-butanamide], the inhibition of growth at 20 ppm is reported as no less than 80%.
Work on CCCON(Cc1ccc(-c2noc(C(F)(F)F)n2)cc1)C(=O)CC1CC1 [Compound 1.289, 2-cyclopropyl-N-propoxy-N-[[4-[5-(trifluoromethyl)-1,2,4-oxadiazol-3-yl]phenyl]methyl]-acetamide] yielded an inhibition of growth at 20 ppm of no less than 80%.
With CCCON(Cc1ccc(-c2noc(C(F)(F)F)n2)cc1)C(=O)C1CCCC1 [Compound 1.290, N-propoxy-N-[[4-[5-(trifluoromethyl)-1,2,4-oxadiazol-3-yl]phenyl]methyl]-cyclopentane-carboxamide] the inhibition of growth at 20 ppm was no less than 80%.
With CCCON(Cc1ccc(-c2noc(C(F)(F)F)n2)cc1)C(=O)C1=CCCC1 [Compound 1.291, N-propoxy-N-[[4-[5-(trifiuoromethyl)-1,2,4-oxadiazol-3-yl]phenyl]methyl]-cyclopentene-1-carboxamide] the inhibition of growth at 20 ppm was no less than 80%.
CCCON(Cc1ccc(-c2noc(C(F)(F)F)n2)cc1)C(=O)C1CSC1 [Compound 1.292, N-propoxy-N-[[4-[5-(trifluoromethyl)-1,2,4-oxadiazol-3-yl]pheny1]methyl]-thietane-3-carboxamide] gave an inhibition of growth at 20 ppm of no less than 80%.
Molecule CCCON(Cc1ccc(-c2noc(C(F)(F)F)n2)cc1)C(=O)CCOC [Compound 1.293, 3-methoxy-N-propoxy-N-[[4-[5-(trifluoromethyl)-1,2,4-oxadiazol-3-yl]phenyl]methyl]-propanamide] has an inhibition of growth at 20 ppm of no less than 80%.
Molecule CCCON(Cc1ccc(-c2noc(C(F)(F)F)n2)cc1)C(=O)CC(C)C [Compound 1.294, 3-methyl-N-propoxy-N-[[4-[5-(trifluoromethyl)-1,2,4-oxadiazol-3-yl]phenyl]methyl]-butanamide] has an inhibition of growth at 20 ppm of no less than 80%.
CCCON(Cc1ccc(-c2noc(C(F)(F)F)n2)cc1)C(=O)C1CCC1 [Compound 1.295, N-propoxy-N-[[4-[5-(trifluoromethyl)-1,2,4-oxadiazol-3-yl]phenyl]methyl]-cyclobutane-carboxamide] gave an inhibition of growth at 20 ppm of no less than 80%.
Work on CCCON(Cc1ccc(-c2noc(C(F)(F)F)n2)cc1)C(=O)COCC [Compound 1.297, 2-ethoxy-N-propoxy-N-[[4-[5-(trifluoromethyl)-1,2.4-oxadiazol-3-yl]phenyl]methyl]-acetamide] yielded an inhibition of growth at 20 ppm of no less than 80%.
Molecule CCCON(Cc1ccc(-c2noc(C(F)(F)F)n2)cc1)C(=O)C1CC1C (stereo not drawn) [Compound 1.299, 2-methyl-N-propoxy-N-[[4-[5-(trifluoromethyl)-1,2,4-oxadiazol-3-yl]phenyl]methyl]-cyclopropane-carboxamide] has an inhibition of growth at 20 ppm of no less than 80%.
In the case of C=CC(=O)N(Cc1ccc(-c2noc(C(F)(F)F)n2)cc1)OCCC [Compound 1.301, N-propoxy-N-[[4-[5-(trifluoromethyl)-1,2,4-oxadiazol-3-yl]phenyl]methyl]-prop-2-enamide], the inhibition of growth at 20 ppm is reported as no less than 80%.
